Among the data in the SangsterLogP compilation are logP values, retold here.

Turning to `O=C1OCCC1Oc1ccc(Oc2ccccc2)cc1` (centres undefined), the logP (as a rule, a log measure of how a compound divides between an organic and an aqueous phase) turned out to be 1.32. As for `CC1CC(NCc2ccccc2)C(=O)O1` (centres undefined), the log partition coefficient (logP) is 1.76. Molecule `O=C(NC1CCOC1=O)c1ccccc1` (centres undefined) registered a logP of 0.84. In the case of `O=C1OCCC1N1CCC(c2ccccc2)CC1` (centres undefined) it was 2.43; in that of `COc1ccc(Cl)cc1N1CCN(C2CCOC2=O)CC1` (centres undefined), 1.18; in that of `O=C1OCCC1NCc1ccccc1` (centres undefined), 1.47.

Regarding `O=C1OCCC1N1C(=O)c2ccccc2C1=O` (centres undefined), the logP worked out at 1.11. The molecule `O=C1OCCC1N1CCN(c2ccccc2)CC1` (centres undefined) yielded a logP of 1.65. In turn, `O=C1OCCC1N1Cc2ccccc2C1` (centres undefined) gave a logP of 1.2. Molecule `O=C1OCCC1N1CCc2ccccc2C1` (centres undefined) had a logP of 1.6. Turning to `COc1cc2c(cc1OC)C(c1ccccc1)N(C1CCOC1=O)CC2` (centres undefined), the logP came to 3.12. `O=C1CC(N2CCN(c3ccccc3)CC2)CO1` (centres undefined) had a logP of 1.22. `O=C1OCCC1N1CCN(C(c2ccccc2)c2ccccc2)CC1` (centres undefined): the logP worked out at 3.28.

Molecule `COc1ccccc1N1CCN(C2CCOC2=O)CC1` (centres undefined) had a logP of 1.44. For `O=C(Cc1ccccc1)NC1CCOC1=O` (centres undefined), the logP came to 0.8.

As for `NC(=O)c1ccccc1OC1CCOC1=O` (centres undefined), the logP came to 0.93.

Molecule `CC(Nc1ccccc1)=C1CCOC1=O` showed a logP of 2.27. In the case of `O=C1OCCC1N1CCN(c2ccc(F)cc2)CC1` (centres undefined) it was 2.05; in that of `O=C1OCCC1NCc1ccc(Cl)cc1` (centres undefined), 1.97; in that of `O=C1OCCC1NCc1ccccc1C(F)(F)F` (centres undefined), 1.83. Molecule `COc1ccc(N2CCN(C3CCOC3=O)CC2)cc1` (centres undefined) showed a log partition coefficient (logP) of 1.46. In the case of `Cc1cccc(C)c1NC1CCOC1=O` (centres undefined) it was 1.39; in that of `COc1ccc(CNC2CCOC2=O)cc1` (centres undefined), 1.43; in that of `O=C1OCCC1N1CCN(c2cccc(C(F)(F)F)c2)CC1` (centres undefined), 2.94. In the case of `COc1cccc(N2CCN(C3CCOC3=O)CC2)c1` (centres undefined), the logP stood at 2.29. Consider `CC(NCc1ccccc1)=C1CCOC1=O`, for which the logP came out at 2.21. As to `CC1CC(N2CCN(c3ccccc3)CC2)C(=O)O1` (centres undefined), the logP was 1.56. For `COc1ccc(CCNC(C)=C2CCOC2=O)cc1OC`, the lipophilicity (logP) is 2.53.

The molecule `COc1cc2c(cc1OC)CN(C1CCOC1=O)CC2` (centres undefined) registered a lipophilicity (logP) of 1.83.
